The target of one experiment is T1, Agg-1 (Homo sapiens, UniProt O75173).
T1 sequence (O75173 213-837): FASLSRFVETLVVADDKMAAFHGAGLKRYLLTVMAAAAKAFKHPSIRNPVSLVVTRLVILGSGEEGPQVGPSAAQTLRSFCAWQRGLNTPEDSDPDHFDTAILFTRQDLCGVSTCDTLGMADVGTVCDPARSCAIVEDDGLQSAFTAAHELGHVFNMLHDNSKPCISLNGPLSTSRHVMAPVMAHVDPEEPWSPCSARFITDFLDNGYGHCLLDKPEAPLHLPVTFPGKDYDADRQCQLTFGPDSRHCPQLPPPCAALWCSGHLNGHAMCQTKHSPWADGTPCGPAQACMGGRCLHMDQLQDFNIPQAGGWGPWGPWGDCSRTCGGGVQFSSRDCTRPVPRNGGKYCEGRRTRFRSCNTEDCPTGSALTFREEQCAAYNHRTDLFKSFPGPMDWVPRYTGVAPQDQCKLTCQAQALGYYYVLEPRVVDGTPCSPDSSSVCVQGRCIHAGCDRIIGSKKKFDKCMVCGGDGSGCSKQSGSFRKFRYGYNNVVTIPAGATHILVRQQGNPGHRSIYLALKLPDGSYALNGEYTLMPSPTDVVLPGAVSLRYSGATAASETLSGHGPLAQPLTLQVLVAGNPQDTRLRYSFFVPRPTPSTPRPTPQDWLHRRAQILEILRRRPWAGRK
Kind of experiment: Agg-1 FRET assay. Conditions: for inhibition at 22 µM: @ 22000 nM; for inhibition at 7.4 µM: @ 7400 nM; for IC50: read-out: Agg1 IC50; for inhibition at 33 µM: @ 33000 nM. The class given is biochemical. An excerpt:
The Agg-1/Agg-2 FRET data for N-[(8-hydroxyquinolin-2-yl)(phenyl)methyl]-2-phenoxyacetamide and 2-{[(phenoxyacetyl)amino](phenyl)methyl}quinolin-8-yl phenoxyacetate is presented in Table 1.

For experiment [1], the target named is T2, recombinant human Aggrecanase-2 Agg2-Phe628 (Homo sapiens, UniProt Q9UNA0).
T2 sequence (Q9UNA0 262-628 limits assumed): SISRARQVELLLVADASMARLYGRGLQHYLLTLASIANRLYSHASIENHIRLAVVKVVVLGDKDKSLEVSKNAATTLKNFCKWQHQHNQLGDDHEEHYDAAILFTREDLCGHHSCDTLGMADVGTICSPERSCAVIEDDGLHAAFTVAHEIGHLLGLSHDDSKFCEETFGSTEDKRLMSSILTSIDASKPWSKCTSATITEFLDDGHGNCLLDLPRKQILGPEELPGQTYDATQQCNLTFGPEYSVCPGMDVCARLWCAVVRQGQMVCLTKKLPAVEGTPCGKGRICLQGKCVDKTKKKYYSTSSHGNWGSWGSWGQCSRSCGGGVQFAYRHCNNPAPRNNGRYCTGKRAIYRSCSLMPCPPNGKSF
As to the kind of experiment: Aggrecanase 2 in vitro enzyme assay (Agg-2 FRET, quenched fluorescent peptide substrate). The arrangement: purified recombinant human Aggrecanase-2 Agg2-Phe628 (MW=41,737); This is a truncated form of full-length human aggrecanase-2; made in house; host or cells: CHO cells. The class given is biochemical. Particulars: for Agg-2 FRET Median PCT INHIB: concentration not given. In short, it runs like this:
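Kinetic fluorescence (λex 340, λem 420 nm) monitored over 40 min at 30 °C after adding 25 μM final Abz/Dnp brevican-based quenched peptide. Enzyme: recombinant truncated human Agg2-Phe628 from CHO, 0.5 μg/ml final, mixed with inhibitor first; buffer HEPES pH 7.5 with NaCl, CaCl2, CHAPS, glycerol; compounds in duplicate.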

Setting [2] is: read-out: Agg-2 FRET Median IC50.

Values joined by “and” are separate entries in the source; they are usually repeats but may differ in a detail not shown here. Identical values can stand only once. Like-named read-outs stand apart in the source and are kept apart here.

Take `O=C(COc1ccccc1)NC(c1ccccc1N1CCOCC1)c1cc(Cl)c2cccnc2c1O` (stereo not shown) [N-[(5-chloro-8-hydroxyquinolin-7-yl)(2-morpholin-4-ylphenyl)methyl]-2-phenoxyacetamide]: the inhibition at 22 µM on Agg-1 (read-out: Agg1 %) amounted to 59%. In addition, the inhibition at […] in experiment [1] (@ 1200 nM) came to 43%.

In the case of `O=C(COc1ccccc1)NC(c1ccccc1[N+](=O)[O-])c1cc(Cl)c2cccnc2c1O` (stereo not shown) [N-[(5-chloro-8-hydroxyquinolin-7-yl)(2-nitrophenyl)methyl]-2-phenoxyacetamide], the inhibition at 7.4 µM on Agg-1 (read-out: Agg1 %) came out at 48%. Besides, the inhibition at […] in experiment [1] (@ 1200 nM) was found to be 58%. In experiment [1] (setting [2]), the IC50 (usually the concentration that inhibits the measured activity by half) was 1210 nM.

Consider `COc1ccc(C(NC(=O)COc2ccccc2)c2cc(Cl)c3cccnc3c2O)cc1OC` (stereo not shown) [N-[(5-chloro-8-hydroxyquinolin-7-yl)(3,4-dimethoxyphenyl)methyl]-2-phenoxyacetamide], for which the IC50 is > 1500 nM at Agg-1; 1060 nM and 5190 nM in experiment [1] (setting [2]).

Take `Cc1ccc(C(NC(=O)COc2ccccc2)c2cc(Cl)c3cccnc3c2O)cc1C` (stereo not shown) [N-[(5-chloro-8-hydroxyquinolin-7-yl)(3,4-dimethylphenyl)methyl]-2-phenoxyacetamide]: the IC50 at Agg-1 is 66000 to 200000 nM; in experiment [1] (read-out: Agg2 IC50), 1500 nM.

With `O=C(COc1ccccc1)NC(c1ccoc1)c1cc(Cl)c2cccnc2c1O` (stereo not shown) [N-[(5-chloro-8-hydroxyquinolin-7-yl)(3-furyl)methyl]-2-phenoxyacetamide], the IC50 on Agg-1 is > 22000 nM; in experiment [1] (read-out: Agg2 IC50), 3460 nM; in experiment [1] (setting [2]), 3460 nM.

For the molecule `Cc1ccsc1C(NC(=O)COc1ccccc1)c1cc(Cl)c2cccnc2c1O` (stereo not shown) [N-[(5-chloro-8-hydroxyquinolin-7-yl)(3-methyl-2-thienyl)methyl]-2-phenoxyacetamide], on Agg-1 (read-out: Agg1 %), the inhibition at 33 µM was found to be 33%. The IC50 in experiment [1] (read-out: Agg2 IC50) and in experiment [1] (setting [2]) was 1370 nM in each case.

For `Cc1ccsc1C(NC(=O)Cc1ccccc1)c1cc(Cl)c2cccnc2c1O` (stereo not shown) [N-[(5-chloro-8-hydroxyquinolin-7-yl)(3-methyl-2-thienyl)methyl]-2-phenylacetamide], at Agg-1 (@ 20000 nM, read-out: Agg1 %), the inhibition at 20 µM stood at 52%. Further, the IC50 in experiment [1] (read-out: Agg2 IC50) and in experiment [1] (setting [2]) was 2540 nM throughout.

As to `O=C(COc1ccccc1)NC(c1cccc([N+](=O)[O-])c1)c1cc(Cl)c2cccnc2c1O` (stereo not shown) [N-[(5-chloro-8-hydroxyquinolin-7-yl)(3-nitrophenyl)methyl]-2-phenoxyacetamide], on Agg-1 (read-out: Agg1 %), the inhibition at 22 µM worked out at 53%. Moreover, the IC50 is 1230 nM in experiment [1] (read-out: Agg2 IC50); 1230 nM and 488 nM in experiment [1] (setting [2]).

With `O=C(COc1ccccc1)NC(c1ccc(F)cc1)c1cc(Cl)c2cccnc2c1O` (stereo not shown) [N-[(5-chloro-8-hydroxyquinolin-7-yl)(4-fluorophenyl)methyl]-2-phenoxyacetamide], the inhibition at 67 µM at Agg-1 (@ 67000 nM, read-out: Agg1 %) amounted to 48%. In addition, in experiment [1] (read-out: Agg2 IC50), the IC50 amounted to 1200 nM.

For `O=C(Cc1ccccc1)NC(c1ccc(F)cc1)c1cc(Cl)c2cccnc2c1O` (stereo not shown) [N-[(5-chloro-8-hydroxyquinolin-7-yl)(4-fluorophenyl)methyl]-2-phenylacetamide], at Agg-1 (@ 3700 nM, read-out: Agg1 %), the inhibition at 3.7 µM worked out at 33%. The IC50 in experiment [1] (read-out: Agg2 IC50) and in experiment [1] (setting [2]) was 2140 nM throughout.

Regarding `CCCCC#Cc1ccc(C(NC(=O)COc2ccccc2)c2cc(Cl)c3cccnc3c2O)cc1` (stereo not shown) [N-[(5-chloro-8-hydroxyquinolin-7-yl)(4-hex-1-yn-1-ylphenyl)methyl]-2-phenoxyacetamide], at Agg-1 (@ 50000 nM, read-out: Agg1 %), the inhibition at 50 µM is 47%. The inhibition at 33.3 µM in experiment [1] (@ 33300 nM) amounted to 48%.

For `CC(C)c1ccc(C(NC(=O)COc2ccccc2)c2cc(Cl)c3cccnc3c2O)cc1` (stereo not shown) [N-[(5-chloro-8-hydroxyquinolin-7-yl)(4-isopropylphenyl)methyl]-2-phenoxyacetamide], on Agg-1 (read-out: Agg1 %), the inhibition at 33 µM turned out to be 47%. Also, in experiment [1] (@ 2500 nM), the inhibition at […] is 45%.

For `COc1ccc(C(NC(=O)COc2ccccc2)c2cc(Cl)c3cccnc3c2O)c2ccccc12` (stereo not shown) [N-[(5-chloro-8-hydroxyquinolin-7-yl)(4-methoxy-1-naphthyl)methyl]-2-phenoxyacetamide], the inhibition at 22 µM on Agg-1 (read-out: Agg1 %) worked out at 62%. For the same molecule, in experiment [1] (read-out: Agg2 IC50), the IC50 is 800 nM.

With `O=C(COc1ccccc1)NC(c1cc(Cl)c2cccnc2c1O)c1coc2ccccc2c1=O` (stereo not shown) [N-[(5-chloro-8-hydroxyquinolin-7-yl)(4-oxo-4H-chromen-3-yl)methyl]-2-phenoxyacetamide], the IC50 at Agg-1 was ~11000 nM. Moreover, the inhibition at […] in experiment [1] (@ 2500 nM) worked out at 72%.

In the case of `O=C(COc1ccccc1)NC(c1ccc(-c2ccncc2)cc1)c1cc(Cl)c2cccnc2c1O` (stereo not shown) [N-[(5-chloro-8-hydroxyquinolin-7-yl)(4-pyridin-4-ylphenyl)methyl]-2-phenoxyacetamide], the 50% inhibitory concentration (IC50) at Agg-1 came to 4700 nM. Besides, in experiment [1] (@ 800 nM), the inhibition at 0.8 µM came to 48%.

On to `Cc1ccc(C(NC(=O)COc2ccccc2)c2cc(Cl)c3cccnc3c2O)o1` (stereo not shown) [N-[(5-chloro-8-hydroxyquinolin-7-yl)(5-methyl-2-furyl)methyl]-2-phenoxyacetamide], for which the results for the IC50 (on Agg-1; in experiment [1] (read-out: Agg2 IC50); in experiment [1] (setting [2])) were > 22000 nM, 2320 nM and 2320 nM, respectively.

Consider `O=C(COc1ccccc1)NC(c1ccc(-c2ccccc2)o1)c1cc(Cl)c2cccnc2c1O` (stereo not shown) [N-[(5-chloro-8-hydroxyquinolin-7-yl)(5-phenyl-2-furyl)methyl]-2-phenoxyacetamide], for which the IC50 was > 22000 nM on Agg-1 and > 5000 nM in experiment [1] (read-out: Agg2 IC50). Also, in experiment [1], the “Agg-2 FRET Median PCT INHIB” value is recorded as 54%.

For the molecule `Cc1ccc2occ(C(NC(=O)COc3ccccc3)c3cc(Cl)c4cccnc4c3O)c(=O)c2c1` (stereo not shown) [N-[(5-chloro-8-hydroxyquinolin-7-yl)(6-methyl-4-oxo-4H-chromen-3-yl)methyl]-2-phenoxyacetamide], the inhibition at 7.4 µM on Agg-1 (read-out: Agg1 %) is 43%. The IC50 in experiment [1] (read-out: Agg2 IC50) turned out to be 1200 nM.

As for `O=C(COc1ccccc1)NC(c1cc(Cl)c2cccnc2c1O)c1cc2ccccc2c2ccccc12` (stereo not shown) [N-[(5-chloro-8-hydroxyquinolin-7-yl)(9-phenanthryl)methyl]-2-phenoxyacetamide], on Agg-1 (read-out: Agg1 %), the inhibition at 33 µM was determined as 54%. For the same molecule, the inhibition at 11 µM in experiment [1] (@ 11000 nM) was 51%.

Consider `O=C(COc1ccccc1)NC(C1=CCCCC1)c1cc(Cl)c2cccnc2c1O` (stereo not shown) [N-[(5-chloro-8-hydroxyquinolin-7-yl)(cyclohex-1-en-1-yl)methyl]-2-phenoxyacetamide], for which, at Agg-1, the IC50 was 1000 to 8000 nM. The inhibition at […] in experiment [1] (@ 1900 nM) worked out at 42%.

For `COc1cc(OCC(=O)NC(c2ccccc2)c2cc(Cl)c3cccnc3c2O)cc(OC)c1OC` (stereo not shown) [N-[(5-chloro-8-hydroxyquinolin-7-yl)(phenyl)methyl]-2-(3,4,5-trimethoxyphenoxy)acetamide], the inhibition at 7.5 µM on Agg-1 (@ 7500 nM, read-out: Agg1 %) was 54%. Moreover, in experiment [1] (read-out: Agg2 IC50), the IC50 is 1800 nM.

As to `O=C(CN1CCC(c2ccccc2)CC1)NC(c1ccccc1)c1cc(Cl)c2cccnc2c1O` (stereo not shown) [N-[(5-chloro-8-hydroxyquinolin-7-yl)(phenyl)methyl]-2-(4-phenylpiperidin-1-yl)acetamide], the values for the 50% inhibitory concentration (IC50) (on Agg-1; in experiment [1] (read-out: Agg2 IC50)) were ~11000 nM and ~3700 nM, respectively. Further, in experiment [1], the “Agg-2 FRET Median PCT INHIB” value is 57%.

On to `O=C(Cc1ccccc1)NC(c1ccccc1)c1cc(Cl)c2cccnc2c1O` (stereo not shown) [N-[(5-chloro-8-hydroxyquinolin-7-yl)(phenyl)methyl]-2-phenylacetamide], for which, at Agg-1 (@ 1200 nM, read-out: Agg1 %), the inhibition at […] worked out at 20%. Moreover, the IC50 in experiment [1] (read-out: Agg2 IC50) and in experiment [1] (setting [2]) was 2530 nM each time.

On to `O=C(COc1ccccc1)NC(c1cc(Cl)c2cccnc2c1O)c1ccnc2ccccc12` (stereo not shown) [N-[(5-chloro-8-hydroxyquinolin-7-yl)(quinolin-4-yl)methyl]-2-phenoxyacetamide], for which the inhibition at 11 µM at Agg-1 (@ 11000 nM, read-out: Agg1 %) is 34%. In addition, the inhibition at 2.8 µM in experiment [1] (@ 2800 nM) turned out to be 45%.

(Values after patent US20080269213A1, “8-Hydroxyquinoline compounds and methods thereof” (Wyeth, priority 2006, published 2008).)
